Activity calls are given as the source filed them. The rule behind the calls is not given here.
Columns and labels:
[1] = Cytotoxicity against mouse P815B cells assessed as cell viability at 10 uM by MTT assay relative to control; type: cell-based; settings: read-out: Activity
[2] = biological target: T1, Indoleamine 2,3-dioxygenase 1 (Homo sapiens, UniProt P14902); test: Inhibition of human recombinant IDO1 using L-Trp as substrate assessed as kynurenine level after 30 mins
[3] = biological target: Tryptophan 2,3-dioxygenase (Mus musculus) (UniProt P48776); test: Inhibition of mouse TDO overexpressed in mouse P815B cells using L-Trp as substrate assessed as kynurenine level at 10 uM by HPLC analysis relative to control; type: cell-based
Tryptophan 2,3-dioxygenase (Mus musculus), sequence (P48776 whole entry): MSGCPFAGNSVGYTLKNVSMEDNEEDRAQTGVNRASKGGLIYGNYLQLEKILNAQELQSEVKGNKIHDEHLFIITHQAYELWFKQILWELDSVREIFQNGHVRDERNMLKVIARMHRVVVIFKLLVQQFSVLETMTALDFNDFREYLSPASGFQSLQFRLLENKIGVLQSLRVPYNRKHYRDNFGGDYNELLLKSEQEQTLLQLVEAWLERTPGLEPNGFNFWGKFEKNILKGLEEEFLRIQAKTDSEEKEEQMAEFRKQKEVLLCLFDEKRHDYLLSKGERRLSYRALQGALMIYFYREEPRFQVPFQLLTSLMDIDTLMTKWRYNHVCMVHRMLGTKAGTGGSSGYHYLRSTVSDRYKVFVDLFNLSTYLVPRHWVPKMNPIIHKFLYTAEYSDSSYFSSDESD

[4] = biological target: Indoleamine 2,3-dioxygenase 1 (Mus musculus) (UniProt P28776); test: Inhibition of mouse IDO1 overexpressed in mouse P815B cells using L-Trp as substrate assessed as kynurenine level at 10 uM by HPLC analysis relative to control; type: cell-based
Indoleamine 2,3-dioxygenase 1 (Mus musculus), sequence (P28776 whole entry, looked up): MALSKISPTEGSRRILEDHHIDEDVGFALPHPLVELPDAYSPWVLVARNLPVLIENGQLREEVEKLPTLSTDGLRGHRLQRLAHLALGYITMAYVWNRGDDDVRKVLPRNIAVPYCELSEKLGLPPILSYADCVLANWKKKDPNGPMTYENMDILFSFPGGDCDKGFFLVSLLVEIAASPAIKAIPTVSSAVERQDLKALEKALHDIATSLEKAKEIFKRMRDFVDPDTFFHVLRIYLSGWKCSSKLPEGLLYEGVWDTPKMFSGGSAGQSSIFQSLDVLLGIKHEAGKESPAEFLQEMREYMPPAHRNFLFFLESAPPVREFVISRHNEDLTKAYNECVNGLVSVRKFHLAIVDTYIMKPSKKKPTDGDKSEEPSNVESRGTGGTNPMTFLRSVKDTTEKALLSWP

[5] = biological target: Indoleamine 2,3-dioxygenase 1 (Mus musculus) (UniProt P28776); test: Inhibition of mouse IDO1 overexpressed in mouse P815B cells using L-Trp as substrate assessed as kynurenine level at 22 uM by HPLC analysis relative to control; type: cell-based
[6] = biological target: Tryptophan 2,3-dioxygenase (Mus musculus) (UniProt P48776); settings: P815B, 22 uM
Description: Inhibition of mouse TDO overexpressed in mouse P815B cells using L-Trp as substrate assessed as kynurenine level at 22 uM by HPLC analysis relative to control

[7] = biological target: T1, Indoleamine 2,3-dioxygenase 1; test: Uncompetitive inhibition of hexahistidyl-tagged human IDO1
Target sequence in this assay (P14902 whole entry): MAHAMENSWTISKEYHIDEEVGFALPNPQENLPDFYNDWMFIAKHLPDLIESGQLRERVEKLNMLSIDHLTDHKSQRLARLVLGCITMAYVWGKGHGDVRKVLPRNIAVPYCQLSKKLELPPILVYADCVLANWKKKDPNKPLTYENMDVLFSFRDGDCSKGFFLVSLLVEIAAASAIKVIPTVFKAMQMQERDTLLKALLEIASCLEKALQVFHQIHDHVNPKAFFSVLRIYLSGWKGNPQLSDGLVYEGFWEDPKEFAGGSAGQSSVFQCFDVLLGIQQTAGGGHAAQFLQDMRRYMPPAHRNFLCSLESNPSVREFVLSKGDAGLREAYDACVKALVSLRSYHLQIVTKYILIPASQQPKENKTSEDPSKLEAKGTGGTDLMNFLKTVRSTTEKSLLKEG

Row | SMILES | viability at 10 µM [1] [%] | IC50 [2] [µM] | inhibition [3] | inhibition [4] | inhibition [2] [%] | inhibition [5] [%] | inhibition [6] | Ki [7] [µM]
1 | COc1ccc(-c2c[nH]c3c2C(=O)c2c4c(cn2S(=O)(=O)c2ccc(C)cc2)CCN=C34)cc1 | < 50 | 4.2 | – | – | – | – | – | –
2 | COc1ccc(-c2c[nH]c3c2C(=O)c2c(c(CCN)cn2S(=O)(=O)c2ccc(C)cc2)C3=O)cc1 | > 90 | 11.9 | inactive | 26% | – | – | – | –
3 | COc1ccc(-c2c[nH]c3c2C(=O)c2cc[nH]c2C3=O)cc1 | < 50 | 12.6 | – | – | – | – | – | –
4 | O=C1c2[nH]ccc2C(=O)c2c(-c3ccc(O)cc3)c[nH]c21 | > 90 | – | inactive | inactive | < 50 | – | – | –
5 | COc1ccc(-c2c[nH]c3c2C(=O)c2c(CCN)cn(S(=O)(=O)c4ccc(C)cc4)c2C3=O)cc1 | 80 | 5.4 | inactive | 15.6% | – | – | – | –
6 | COc1ccc(-c2c[nH]c3c2C(=O)c2[nH]cc4c2C3=NCC4)cc1 | < 50 | 7.1 | – | – | – | – | – | –
7 | COc1ccc(C(O)CNC2=CC(=O)c3c(c(CCNC(=O)OC(C)(C)C)cn3S(=O)(=O)c3ccc(C)cc3)C2=O)cc1 (configuration not stated) | > 90 | 10.1 | inactive | 17.4% | – | – | – | –
8 | COc1ccc(C(O)CNC2=CC(=O)c3c(CCNC(=O)OC(C)(C)C)cn(S(=O)(=O)c4ccc(C)cc4)c3C2=O)cc1 (configuration not stated) | > 90 | 26.9 | inactive | 31.3% | – | – | – | –
9 | Cn1cc(C[C@H](N)C(=O)O)c2ccccc21 [(L)-1-METHYLTRYPTOPHAN] | > 90 | – | – | – | – | 14.5 | inactive | –
10 | COc1ccc(C2CNC3=C2C(=O)c2c(CCN)cn(S(=O)(=O)c4ccc(C)cc4)c2C3=O)cc1 (configuration not stated) | 83 | 2.8 | inactive | 26.1% | – | – | – | –
11 | COc1ccc(C2CNC3=C2C(=O)c2ccn(S(=O)(=O)c4ccc(C)cc4)c2C3=O)cc1 (configuration not stated) | > 90 | 1.8 | 2.5% | 40.2% | – | – | – | –
12 | COc1ccc(-c2c[nH]c3c2C2=NCCc4cn(S(=O)(=O)c5ccc(C)cc5)c(c42)C3=O)cc1 | > 90 | 2.2 | 3.1% | 32% | – | – | – | –
13 | COc1ccc(C(O)CNC2=CC(=O)c3c(ccn3S(=O)(=O)c3ccc(C)cc3)C2=O)cc1 (configuration not stated) | > 90 | 8.8 | 1.1% | 37.3% | – | – | – | –
14 | COc1ccc(-c2c[nH]c3c2C2=NCCc4c[nH]c(c42)C3=O)cc1 | > 90 | 0.9 | inactive | 19.4% | – | – | – | –
15 | O=C1c2[nH]cc3c2C(=NCC3)c2[nH]cc(-c3ccc(O)cc3)c21 | > 90 | 7 | inactive | 5.3% | – | – | – | –
16 | COc1ccc(C2CNC3=C2C(=O)c2c(c(CCN)cn2S(=O)(=O)c2ccc(C)cc2)C3=O)cc1 (configuration not stated) | > 90 | 5.6 | 4.7% | 40.2% | – | – | – | –
17 | COc1ccc(C(O)CNC2=CC(=O)c3ccn(S(=O)(=O)c4ccc(C)cc4)c3C2=O)cc1 (configuration not stated) | > 90 | 2.5 | inactive | 24.3% | – | – | – | –
18 | COc1ccc(C2CNC3=C2C(=O)c2c(ccn2S(=O)(=O)c2ccc(C)cc2)C3=O)cc1 (configuration not stated) | > 90 | 5.6 | 3.2% | 54.2% | – | – | – | –
19 | COc1ccc(-c2c[nH]c3c2C(=O)c2[nH]ccc2C3=O)cc1 | < 50 | 22.4 | – | – | – | – | – | –
20 | CO[C@@]12[C@H](COC(N)=O)C3=C(C(=O)C(C)=C(N)C3=O)N1C[C@@H]1N[C@@H]12 [MITOMYCIN] | – | – | – | – | – | – | – | 25
21 | COc1ccc(-c2c[nH]c3c2C(=O)c2ccn(S(=O)(=O)c4ccc(C)cc4)c2C3=O)cc1 | > 90 | – | inactive | 19.6% | < 50 | – | – | –
